According to patent US6706517B2, “Method for producing L-amino acids by fermentation” (priority 1999, dated 2004):
Structures can show the parent of a compound that is named as a salt.

Key:
Assay type in all cases: cell-based
Settings in all cases: 33° C., 4 days
[1] = test system: Escherichia coli H-9343; assay: Comparative test of growth on agar plate medium containing primaquine or novobiocin, mutant strain H-9343
Procedure: Furthermore, the obtained colony was subjected to a mutation treatment with NTG (0.2 mg/ml, 30° C., 30 minutes), followed by spreading on an agar plate culture medium containing 150 mg/liter primaquine disodium salt. Culturing was carried out thereon at 30° C. for 2 to 6 days, and growing large colonies were picked up and separated to obtain the strain H-9343. The strains H-9340, H-9342 and H-9343 were deposited on March 9, 1999 with the National Institute of Bioscience and Human-Technology, Agency of Industrial Science and Technology (1-3, Higashi 1-chome, Tsukuba-shi, Ibaraki-ken, Japan) under the Budapest Treaty with accession Nos. FERM BP-6673, FERM BP-6675 and FERM BP-6676, respectively.
(§1) Comparative test of growth on agar plate culture medium containing primaquine or novobiocin
(§2) The growth of the mutant strains H-9342 and H-9343 obtained in Example 1 was compared with the growth of the parent strain H-9340 on an agar plate medium containing primaquine or novobiocin.
(§3) Each of the mutant strains, which had been cultured in a natural medium for 24 hours and suspended in physiological saline, was spread at a cell density of 1 to 10 cells/cm^2 on the agar plate medium containing primaquine disodium salt or novobiocin monosodium salt at the same concentration as that at the time of acquisition of each mutant strain, and cultured at 33° C. for 4 days.

[2] = test system: Escherichia coli H-9340; assay: Comparative test of growth on agar plate medium containing primaquine or novobiocin, parent strain H-9340
Procedure: (§4) Preparation of an L-histidine-producing mutant strain having resistance to a DNA gyrase inhibitor or an L-histidine-producing mutant strain having both resistance to a DNA gyrase inhibitor and resistance to an aminoquinoline derivative The L-histidine-producing mutant strain H-9340 having resistance to 1,2,4-triazole alanine, which was derived from methionine-requiring Escherichia coli ATCC 21318 was subjected to a mutation treatment with N-methyl-N′-nitro-N-nitrosoguanidine (NTG) (0.2 mg/ml, 30° C., 30 minutes) according to a conventional method and spread on a 1 g/liter noboviocin monosodium salt-containing agar plate medium [0.2% glucose, 0.3% potassium dihydrogen phosphate, 0.6% disodium hydrogen phosphate, 0.01% magnesium sulfate, 0.05% sodium chloride, 0.1% ammonium chloride, 50 mg/liter required nutrient (DL-methionine) and 1.5% agar, pH 7.2].
as §1
The growth of the mutant strains H-9342 and H-9343 obtained in Example 1 was compared with the growth of the parent strain H-9340 on an agar plate medium containing primaquine or novobiocin. […]

[3] = test system: Escherichia coli H-9342; assay: Comparative test of growth on agar plate medium containing primaquine or novobiocin, mutant strain H-9342
Procedure: as §4
The mutant strain was cultured on the agar plate medium at 30° C. for 2 to 6 days, and the growing large colonies were picked up and separated to obtain the strain H-9342.
as §1, §2, §3

[4] = 1 g/liter novobiocin monosodium salt in agar medium
[5] = 150 mg/liter primaquine disodium salt in agar medium

Structure (SMILES)	Growth or non-growth on agar plate medium [1, 4]	Growth or non-growth on agar plate medium [2, 4]	Growth or non-growth on agar plate medium [3, 4]	Growth or non-growth on agar plate medium [1, 5]	Growth or non-growth on agar plate medium [2, 5]	Growth or non-growth on agar plate medium [3, 5]	Growth on the primaquine-containing culture medium (in words) ([3]; primaquine-containing agar medium)
CO[C@@H]1[C@@H](OC(N)=O)[C@@H](O)[C@H](Oc2ccc3c(O)c(NC(=O)c4ccc(O)c(CC=C(C)C)c4)c(=O)oc3c2C)OC1(C)C [Novobiocin monosodium salt, novobiocin monosodium salt]	+	−	+				
COc1cc(NC(C)CCCN)c2ncccc2c1 (stereo not shown) [Primaquine disodium salt, primaquine disodium salt]				+	−	−	did not grow
